The values below come from patent US9227966B2, “Antimicrobial agents” (Rutgers, The State University of New Jersey, priority 2010, dated 2016).

In this assay the test system is methicillin-Sensitive Staphylococcus aureus (MSSA). The assay is described as follows: Planktonic (free-living) antibacterial assay, broth microdilution MIC vs. MSSA. Particulars: minimal concentration at which bacterial growth is completely inhibited, 37° C., 24 to 48 hours, OD 600 nm. The format is cell-based. On the procedure:
Test C. Planktonic (Free-Living) Antibacterial Assay.
Planktonic antibacterial activity can be determined using a broth microdilution assay in which log-phase bacteria are grown at 37° C. in appropriate medium containing two-fold serial dilutions of a compound to yield a final concentration ranging from […]. For determination of minimal inhibitory concentration (MIC) values, bacterial growth is monitored after 24 to 48 hours by measuring optical density at 600 nm.
The minimal inhibitory concentration against methicillin-Sensitive Staphylococcus aureus (MSSA) for each of the following representative compounds of the invention was determined to be less than 32 μg/ml.
Compound `C[n+]1cc2ccccc2cc1-c1cccc(-c2ccccc2)c1.[I-]` [Example 2] showed an MIC not above 32 mg/L. The result for `COc1cc2cc(-c3cccc(-c4ccccc4)c3)[n+](C)c(C)c2cc1OC.[I-]` [Example 4] reads not above 32 mg/L. For `C[n+]1cc2ccccc2cc1-c1cc(-c2ccccc2)cc(-c2ccccc2)c1.[I-]` [Example 6], the MIC is not above 32 mg/L.

For the compound `COc1cc2cc(-c3cc(-c4ccccc4)cc(-c4ccccc4)c3)[n+](C)c(C)c2cc1OC.[I-]` [Example 8], the MIC was not above 32 mg/L. As for `COc1cc2cc(-c3cccc(-c4ccc(-c5ccccc5)cc4)c3)[n+](C)c(C)c2cc1OC.[I-]` [Example 16], the figure is not above 32 mg/L. `COc1cc2cc3c4cc(-c5ccc(-c6ccccc6)cc5)c(OC)c(OC)c4cc[n+]3c(C)c2cc1OC` [Example 17]: the MIC is not above 32 mg/L. For the compound `COc1cc2cc[n+]3cc4c(OC)c(OC)c(OC)cc4cc3c2cc1-c1ccc(-c2ccccc2)cc1.[Cl-]` [Example 19], the MIC is not above 32 mg/L. As for `COc1cc2c(C)[n+]3ccc4c(OC)c(OC)ccc4c3cc2c(-c2ccc(-c3ccccc3)cc2)c1OC` [Example 20], the figure is not above 32 mg/L. For `COc1cc2c[n+]3ccc4c(OC)c(OC)ccc4c3cc2c(-c2ccc(-c3ccccc3)cc2)c1OC.[Cl-]` [Example 21], the MIC is not above 32 mg/L. As for `COc1cc2cc3c4cc(-c5cccc(N(C)C)c5)c(OC)cc4cc[n+]3c(C)c2cc1OC` [Example 27], the figure is not above 32 mg/L; as for `COc1cc2cc3c4cc(-c5ccc(C)cc5)c(OC)cc4cc[n+]3c(C)c2cc1OC` [Example 30], not above 32 mg/L. The result for `COc1cc2cc3c4cc(-c5ccc(C)cc5)c(OC)cc4cc[n+]3cc2cc1OC.[Cl-]` [Example 31] reads not above 32 mg/L; that for `COc1cc2cc3c4cc(-c5ccccc5)c(OC)cc4cc[n+]3cc2cc1OC.[Cl-]` [Example 35], not above 32 mg/L.
